From paper PMC3597463 (Analytical chemistry, 2013)
Like-named read-outs stand apart in the source and are kept apart here.

Assays:
mice [1] = details: cited from earlier work; for oral LD50: mice; for LD50: fed to fasted mice
[2] = test system: Torpedo marmorata nicotinic acetylcholine receptor (nAChR); assay: nAChR/microsphere-based inhibition assay; format: binding; details: for IC50 expressed as level in shellfish meat: assuming 100% recoveries; for Interference with the Luminex nAChR-based assay: restated in discussion, concentration not given there
nAChR [3] = details: fluorescence polarization assay; cited from earlier work
nAChR [4] = details: chemiluminescence assay; cited from earlier work
[5] = format: physicochemical; details: for % Recovery (toxin detected after storage versus freshly analyzed samples): 7 ng/ml, 4 weeks
mice [6] = details: fed to fasted mice, from reported LD50
[7] = test system: Lymnaea stagnalis acetylcholine binding protein (Ls-AChBP); assay: Ls-AChBP/microsphere-based inhibition assay; details: buffer
nAChR [8] = details: cited from earlier work
[9] = molecular target: Torpedo marmorata nicotinic acetylcholine receptor (Torpedo marmorata) (UniProt P02711); assay: […]
Chain of Torpedo marmorata nicotinic acetylcholine receptor (Torpedo marmorata) (P02711 whole entry, looked up): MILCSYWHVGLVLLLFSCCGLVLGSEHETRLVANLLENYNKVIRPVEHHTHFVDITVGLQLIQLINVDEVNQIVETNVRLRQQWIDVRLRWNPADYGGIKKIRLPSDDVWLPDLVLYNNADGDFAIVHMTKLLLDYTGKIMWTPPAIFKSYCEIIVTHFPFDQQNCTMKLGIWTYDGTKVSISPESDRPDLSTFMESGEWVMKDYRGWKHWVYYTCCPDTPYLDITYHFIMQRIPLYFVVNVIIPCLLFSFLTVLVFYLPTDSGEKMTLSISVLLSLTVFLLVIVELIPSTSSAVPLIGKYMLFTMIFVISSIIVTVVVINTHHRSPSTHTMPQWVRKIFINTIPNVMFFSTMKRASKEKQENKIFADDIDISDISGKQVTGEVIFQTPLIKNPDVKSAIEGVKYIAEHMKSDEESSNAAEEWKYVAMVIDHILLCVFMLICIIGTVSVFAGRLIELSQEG

[10] = molecular target: Acetylcholine binding protein from Lymnaea stagnalis (Lymnaea stagnalis, UniProt P58154 20-229); assay: […]
Chain of Acetylcholine binding protein from Lymnaea stagnalis (P58154 20-229): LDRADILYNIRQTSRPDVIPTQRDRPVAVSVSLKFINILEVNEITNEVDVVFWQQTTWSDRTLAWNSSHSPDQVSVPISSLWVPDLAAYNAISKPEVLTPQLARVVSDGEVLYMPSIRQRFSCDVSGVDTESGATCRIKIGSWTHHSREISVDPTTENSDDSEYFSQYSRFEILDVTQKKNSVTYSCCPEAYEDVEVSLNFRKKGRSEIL

Molecule: 20-methyl spirolide G
- oral LD50 (mice [1]; administered with food): 500 Wg/kg
- oral LD50 (mice [1]; by gavage): 160 Wg/kg
- Cross-reactivity (IC50 of 13-desmethyl spirolide C / IC50 of cyclic imine x 100) ([2]; nAChR assay, buffer): 95%

Molecule: C=C1CCCC2=NCC(C)C(C)CC23CCC(C2C=C(C)C(=O)O2)=C(C)C3/C=C(/C)C(O)CC2CCC3(CCC4(OC(CCC4(C)O)C1)O3)O2 (centres unmarked) [13-desmethyl spirolide C]
- IC50 (nAChR [3]): 0.1 µM
- IC50 (nAChR [4]): 0.035 µM
- % Recovery (toxin detected after storage versus freshly analyzed samples) ([5]; buffer (PBS-BT/20% EtOH), 4–8 °C): 109 ± 6%
- % Recovery (toxin detected after storage versus freshly analyzed samples) ([5]; buffer (PBS-BT/20% EtOH), −20 °C): 98.1 ± 6.3%
- % Recovery (toxin detected after storage versus freshly analyzed samples) ([5]; mussel extract, 4–8 °C): 135 ± 23%
- % Recovery (toxin detected after storage versus freshly analyzed samples) ([5]; mussel extract, −20 °C): 121 ± 16%
- % Recovery (toxin detected after storage versus freshly analyzed samples) ([5]; scallop extract, 4–8 °C): 92.0 ± 9.2%
- % Recovery (toxin detected after storage versus freshly analyzed samples) ([5]; scallop extract, −20 °C): 85.5 ± 5.5%
- % of toxin recovered after storage in mussel homogenate ([5]; spiked mussel homogenate, two weeks, −20 °C): 105.7 ± 5.3%
- LD50 (mice [1]): 0.5 mg/kg
- oral LD50 (mice [1]; administered with food): 500 Wg/kg
- oral LD50 (mice [1]; by gavage): 160 Wg/kg
- IC50 [2]: 0.01 µM
- IC20 ([2]; buffer): 0.2 ± 0.04 ng/mL
- IC50 ([2]; buffer): 7.4 ± 0.7 ng/mL
- IC50 ([2]; buffer (PBS-BT/20% EtOH), n = 8): 0.0108 ± 0.0009 µM
- IC20 ([2]; clam extract): 0.3 ± 0.01 ng/mL
- IC50 ([2]; clam extract): 10.3 ± 1.4 ng/mL
- IC80 ([2]; clam extract): 160 ± 6 ng/mL
- IC50 expressed as level in shellfish meat ([2]; clam extract): 411.6 ± 54.8 Wg/kg
- IC50 ([2]; clam extract, n = 2): 0.0149 ± 0.0019 µM
- IC20 ([2]; mussel extract): 0.4 ± 0.1 ng/mL
- IC50 ([2]; mussel extract): 11.3 ± 1.1 ng/mL
- IC80 ([2]; mussel extract): 160 ± 8 ng/mL
- IC50 expressed as level in shellfish meat ([2]; mussel extract): 451.3 ± 42.4 Wg/kg
- IC50 ([2]; mussel extract, n = 6): 0.0163 ± 0.0015 µM
- Detection efficiency of 13-desmethyl spirolide C relative to gymnodimine ([2]; nAChR assay, buffer): 24 times
- IC20 ([2]; read-out: IC20 (nM), lower end of dynamic range, buffer): 0.4 ± 0.07 nM
- IC20 ([2]; read-out: IC20 (nM), lower end of dynamic range, clam extract): 0.5 ± 0.01 nM
- IC20 ([2]; read-out: IC20 (nM), lower end of dynamic range, mussel extract): 0.6 ± 0.2 nM
- IC20 ([2]; read-out: IC20 (nM), lower end of dynamic range, scallop extract): 0.5 ± 0.2 nM
- IC80 ([2]; read-out: IC80 (nM), upper end of dynamic range, clam extract): 231 ± 23 nM
- IC80 ([2]; read-out: IC80 (nM), upper end of dynamic range, mussel extract): 232 ± 11 nM
- IC80 ([2]; read-out: IC80 (nM), upper end of dynamic range, scallop extract): 201 ± 9 nM
- IC20 ([2]; scallop extract): 0.4 ± 0.2 ng/mL
- IC50 ([2]; scallop extract): 8.6 ± 1.5 ng/mL
- IC80 ([2]; scallop extract): 139 ± 6.5 ng/mL
- IC50 expressed as level in shellfish meat ([2]; scallop extract): 344.2 ± 60.3 Wg/kg
- IC50 ([2]; scallop extract, n = 5): 0.0124 ± 0.0022 µM

Molecule: C/C(=C/C=C/[C@@H](C)C(=O)O)[C@H]1CN[C@H](C(=O)O)[C@H]1CC(=O)O [domoic acid]
- Interference with the nAChR-based assay (maximum and minimum binding signals) ([2]; 10 μM): no effects on maximum and minimum binding signals
- Interference with the Luminex nAChR-based assay [2]: do not interfere

Molecule: CC1=C[C@@H](C2=C(C)[C@@H]3/C=C(\C)[C@@H](O)CC[C@@H]4C[C@@H](C)[C@@H](O4)/C(C)=C/CCC4=NCCC[C@@]43CC2)OC1=O [gymnodimine, Gymnodimine]
- Times less toxic than 13-desmethyl spirolide C (mice [6]): > 15 times
- Assay efficiency for gymnodimine relative to 13-desmethyl spirolide C [7]: 14 fold
- LD50 (mice [1]): > 7.5 mg/kg

Molecule: C=C1[C@@H](O)[C@@H]2O[C@]3(CC[C@H](/C=C/[C@@H](C)[C@@H]4CC(C)=C[C@@]5(O[C@H](C[C@@](C)(O)C(=O)O)CC[C@H]5O)O4)O3)CC[C@H]2O[C@@H]1[C@@H](O)C[C@H](C)[C@H]1O[C@@]2(CCCCO2)CC[C@H]1C [okadaic acid]
- Interference with nAChR based assays (nAChR [8]; previous studies): not shown any interferences
- Interference with the nAChR-based assay (maximum and minimum binding signals) ([2]; 10 μM): no effects on maximum and minimum binding signals
- Interference with the Luminex nAChR-based assay [2]: do not interfere

Molecule: C=CCC(=C)/C=C/[C@@](C)(O)[C@H]1O[C@@H]2C[C@@H]3O[C@@H]4C[C@@H]5O[C@@H]6C[C@@H]7O[C@@H]8C[C@@H]9O[C@@H]%10C[C@@H]%11O[C@](C)(CCOS(=O)(=O)O)[C@@H](OS(=O)(=O)O)C[C@H]%11O[C@H]%10C[C@H]9O[C@H]8CC[C@@]7(C)O[C@@]6(C)CC[C@H](C)[C@H]5O[C@H]4C[C@@]3(C)O[C@H]2CC1=C [yessotoxin]
- Interference with nAChR based assays (nAChR [8]; previous studies): not shown any interferences
- Interference with the nAChR-based assay (maximum and minimum binding signals) ([2]; 5 μM): no effects on maximum and minimum binding signals
- Interference with the Luminex nAChR-based assay [2]: do not interfere

Molecule: Biotin-α-bungarotoxin (peptide)
- maximum binding signal to background ratio [9]: 500

Molecule: azaspiracid-2
- Interference with nAChR based assays (nAChR [8]; previous studies): not shown any interferences

Molecule: azaspirazid-1
- Interference with the nAChR-based assay (maximum and minimum binding signals) ([2]; 1 μM): no effects on maximum and minimum binding signals
- Interference with the Luminex nAChR-based assay [2]: do not interfere

Molecule: brevetoxin-2
- Interference with nAChR based assays (nAChR [8]): not shown any interferences

B1: Biotin-α-bungarotoxin (peptide)
chain: IVCHTTATSPISAVTCPPGENLCYRKMWCDAFCSSRGKVVELGCAATCPSKKPYEEVTCCSTDKCNPHPKQRPG
- maximum binding signal to background ratio [10]: ~2000
